Assays:
Type in all cases: in vivo
[1] = tested on: Hemp Sesbania (Sesbania exaltata); assay: Example 4 post-emergence greenhouse pot test, hemp sesbania; details: 0.25 lb ai/acre
Method: Test compositions containing sulfentrazone (75 DF formulation), quniclorac, (DRIVE® 75 DF Herbicide) or mixtures of sulfentrazone and quinclorac at ratios of 1:1 to 1:5, were diluted with water to provide the appropriate test rate concentrations. A nonionic surfactant (0.25%) was added to each test solution. The test weeds include crabgrass (Digitaria sp), Chickweed (Stellaria media), Hemp Sesbania (Sesbania exaltata), Kochia (Kochia scoparia), Ivyleaf Morningglory (Ipomoea hederacea), Redroot Pigweed (Amaranthus retroflexus) and yellow nutsedge (Cyperus esculentusi).
(§1) For post-emergence testing, three disposable 3 inch square pots for each rate of application of each herbicide were filled with a soil, comprised of peat moss, vermiculite, bark ash, pine bark, limestone and a wetting agent, to which 8 to 10 seeds were planted. The pots were placed in a greenhouse and watered daily, thus allowing the seeds to germinate and the foliage to develop for 22 days, 3 months for Kochia.
(§2) Pots designated for treatment were placed on a conveyor belt and the conveyor belt fed under a spray nozzle mounted about ten inches above the foliage. The spray of herbicidal solution was commenced and once stabilized; the pots were passed under the spray at a speed to receive a coverage equivalent of 30 gallons per acre. The application rates are those shown in Table 4 below for the individual herbicidal solutions and the mixture of sulfentrazone and quinclorac. The post-emergence pots were immediately placed in the green-house and not watered until 24 hours after treatment with the test solution. Thereafter they were regularly watered at ground level. The control of weeds was evaluated in each experimental test from 2 to 20 days after treatment (DAT). The results, shown as an average of the replications, were compared with results observed in untreated control pots in the same tests.
(§3) Percent control was determined by a method similar to the 0 to 100 rating system disclosed in “Research Methods in Weed Science,” 2nd ed., B. Truelove, Ed.; Southern Weed Science Society; Auburn University, Auburn, Ala., 1977.

[2] = tested on: Field Violet (Viola arvensis); assay: Example 2 post-emergent turf plot test, violet; details: 0.57 lb ai/acre
Method: (§4) The experimental design used randomized plots with post-emergent treatment and three replications per test trial. The size of each experimental plot was 4 feet by 6 feet. The application of each test composition was performed with pressurized back-pack sprayers, calibrated to spray 200 gallons per acre. Test compositions containing sulfentrazone (DISMISS™ Turf Herbicide), quinclorac, (FACET® 75 DF herbicide) or a mixture of sulfentrazone and quinclorac in a one to three ratio, prepared as described above, were diluted with water to provide the appropriate test rate concentrations.
(§5) The control of weeds was evaluated in each experimental plot from 1 to 27 days after treatment (DAT) of each test rate. The results, shown as an average of the replications, were compared with results observed in untreated control plots in the same trials.

[3] = tested on: Red River crabgrass (Digitaria ciliaris); assay: Example 3 post-emergence greenhouse pot test, crabgrass
Method: Test compositions containing sulfentrazone (DISMISS™ Turf Herbicide), quniclorac, (DRIVE® 75 DF Herbicide) or mixture of sulfentrazone and quinclorac in a three to one ratio, prepared as described above, were diluted with water to provide the appropriate test rate concentrations. A nonionic surfactant (0.25%) was added to each test solution.
The test weeds include Red River crabgrass (Digitaria ciliaris) and yellow nutsedge (Cyperus esculentusi).
as §1, with “develop.” for “develop for 22 days, 3 months for Kochia.”
as §2, with “Table 3” for “Table 4”, “from 1” for “from 2”, “to 22” for “to 20”
as §3

[4] = tested on: Yellow Nutsedge (Cyperus esculentus); assay: Example 2 post-emergent turf plot test, nutsedge; details: 0.57 lb ai/acre
Method: as §4, §5

[5] = tested on: White Clover (Trifolium repens); assay: Example 1 post-emergent turf plot test, clover; details: 0.57 lb ai/acre
Method: as §4, with “quniclorac,” for “quinclorac,”, “1:3” for “one to three”
The control of weeds was evaluated in each experimental plot from 7 to 41 days after treatment (DAT) of each test rate. The results, shown as an average of the replications, were compared with results observed in untreated control plots in the same trials.

How did the Percent Control ([1]; 2 DAT) turn out when Cc1nn(-c2cc(NS(C)(=O)=O)c(Cl)cc2Cl)c(=O)n1C(F)F [A, N-[2,4-dichloro-5-[4-(difluoromethyl)-4,5-dihydro-3-methyl-5-oxo-1H-1,2,4-triazol-1-yl]phenyl]methanesulfonamide] was run?
The Percent Control was 70%.

What about the Percent Control ([1]; 7 DAT) of the same compound?
Its Percent Control is 85%.

What about the Percent Control ([1]; 14 DAT) of the same compound?
Its Percent Control is 90%.

What about the Percent Control ([1]; 20 DAT) of the same compound?
Its Percent Control is 90%.

What about the “Percent Control” value ([2]; 7 DAT) of the same compound?
The value was 66%.

And the “Percent Control” value ([2]; 14 DAT)?
The value was 78%.

What about the “Percent Control” value ([2]; 21 DAT) of the same compound?
Its value is 69%.

What about the “Percent Control” value ([3]; 1-2 leaf stage, 11 days old, 0.125 lb ai/acre, 1 DAT) of the same compound?
The value was 50%.

What about the “Percent Control” value ([3]; 1-2 leaf stage, 11 days old, 0.125 lb ai/acre, 3 DAT) of the same compound?
Its value is 60%.

And the “Percent Control” value ([3]; 1-2 leaf stage, 11 days old, 0.125 lb ai/acre, 7 DAT)?
The value was 50%.

And the “Percent Control” value ([3]; 1-2 leaf stage, 11 days old, 0.125 lb ai/acre, 14 DAT)?
Its value is 40%.

And the “Percent Control” value ([3]; 1-2 leaf stage, 11 days old, 0.125 lb ai/acre, 21 DAT)?
Its value is 30%.

And the “Percent Control” value ([3]; 1-2 leaf stage, 11 days old, 0.25 lb ai/acre, 1 DAT)?
The value was 60%.

What about the “Percent Control” value ([3]; 1-2 leaf stage, 11 days old, 0.25 lb ai/acre, 3 DAT) of the same compound?
Its value is 70%.

What about the “Percent Control” value ([3]; 1-2 leaf stage, 11 days old, 0.25 lb ai/acre, 7 DAT) of the same compound?
Its value is 50%.

And the “Percent Control” value ([3]; 1-2 leaf stage, 11 days old, 0.25 lb ai/acre, 14 DAT)?
Its value is 20%.

And the “Percent Control” value ([3]; 1-2 leaf stage, 11 days old, 0.25 lb ai/acre, 21 DAT)?
The value was 5%.

What about the “Percent Control” value ([3]; 1-2 leaf stage, 11 days old, 0.375 lb ai/acre, 1 DAT) of the same compound?
Its value is 50%.

And the “Percent Control” value ([3]; 1-2 leaf stage, 11 days old, 0.375 lb ai/acre, 3 DAT)?
The value was 70%.

What about the “Percent Control” value ([3]; 1-2 leaf stage, 11 days old, 0.375 lb ai/acre, 7 DAT) of the same compound?
The value was 50%.

What about the “Percent Control” value ([3]; 1-2 leaf stage, 11 days old, 0.375 lb ai/acre, 14 DAT) of the same compound?
Its value is 20%.

And the “Percent Control” value ([3]; 1-2 leaf stage, 11 days old, 0.375 lb ai/acre, 21 DAT)?
The value was 10%.

And the “Percent Control” value ([3]; 3-4 leaf stage, 1-2 tillers, 14 days old, 0.125 lb ai/acre, 1 DAT)?
Its value is 25%.

And the “Percent Control” value ([3]; 3-4 leaf stage, 1-2 tillers, 14 days old, 0.125 lb ai/acre, 3 DAT)?
Its value is 25%.

What about the “Percent Control” value ([3]; 3-4 leaf stage, 1-2 tillers, 14 days old, 0.125 lb ai/acre, 7 DAT) of the same compound?
The value was 30%.

What about the “Percent Control” value ([3]; 3-4 leaf stage, 1-2 tillers, 14 days old, 0.125 lb ai/acre, 14 DAT) of the same compound?
The value was 10%.

What about the “Percent Control” value ([3]; 3-4 leaf stage, 1-2 tillers, 14 days old, 0.125 lb ai/acre, 21 DAT) of the same compound?
Its value is 5%.

What about the “Percent Control” value ([3]; 3-4 leaf stage, 1-2 tillers, 14 days old, 0.25 lb ai/acre, 1 DAT) of the same compound?
The value was 25%.

What about the “Percent Control” value ([3]; 3-4 leaf stage, 1-2 tillers, 14 days old, 0.25 lb ai/acre, 3 DAT) of the same compound?
Its value is 25%.

And the “Percent Control” value ([3]; 3-4 leaf stage, 1-2 tillers, 14 days old, 0.25 lb ai/acre, 7 DAT)?
Its value is 30%.

And the “Percent Control” value ([3]; 3-4 leaf stage, 1-2 tillers, 14 days old, 0.25 lb ai/acre, 14 DAT)?
Its value is 12%.

What about the “Percent Control” value ([3]; 3-4 leaf stage, 1-2 tillers, 14 days old, 0.25 lb ai/acre, 21 DAT) of the same compound?
The value was 5%.

What about the “Percent Control” value ([3]; 3-4 leaf stage, 1-2 tillers, 14 days old, 0.375 lb ai/acre, 1 DAT) of the same compound?
Its value is 20%.

What about the “Percent Control” value ([3]; 3-4 leaf stage, 1-2 tillers, 14 days old, 0.375 lb ai/acre, 3 DAT) of the same compound?
The value was 20%.

And the “Percent Control” value ([3]; 3-4 leaf stage, 1-2 tillers, 14 days old, 0.375 lb ai/acre, 7 DAT)?
The value was 22%.

What about the “Percent Control” value ([3]; 3-4 leaf stage, 1-2 tillers, 14 days old, 0.375 lb ai/acre, 14 DAT) of the same compound?
Its value is 0%.

What about the “Percent Control” value ([3]; 3-4 leaf stage, 1-2 tillers, 14 days old, 0.375 lb ai/acre, 21 DAT) of the same compound?
Its value is 0%.

What about the “Percent Control” value ([4]; 7 DAT) of the same compound?
Its value is 100%.

What about the “Percent Control” value ([4]; 14 DAT) of the same compound?
Its value is 100%.

And the “Percent Control” value ([4]; 21 DAT)?
The value was 100%.

And the “Percent Control” value ([5]; 7 DAT)?
Its value is 59%.

And the “Percent Control” value ([5]; 14 DAT)?
The value was 63%.

And the “Percent Control” value ([5]; 21 DAT)?
Its value is 59%.

What about the “Percent Control” value ([5]; 28 DAT) of the same compound?
Its value is 52%.
